Measurements: patent US20160322588A1, “Organic Transistor, Compound, Organic Semiconductor Material for Non-Light-Emitting Organic Semiconductor Device, Material for Organic Transistor, Coating Solution for Non-Light-Emitting Organic Semiconductor Device, and Organic Semiconductor Film for Non-Light-Emitting Organic Semiconductor Device” (FUJIFILM Corporation, priority 2014, published 2016)

assay: Solubility in toluene; format: physicochemical; conditions: 20 mg mixed with toluene (1 mL)
Text: B: Incompletely dissolved.

Solubility | Compound
A (Completely dissolved.) | CCCCCCCCc1cc2ccc3c(sc4c5ccc6cc(CCCCCCCC)sc6c5sc34)c2s1 [Compound 1]
A (Completely dissolved.) | CCCCCCCCc1cc2c(ccc3c2sc2c4ccc5sc(CCCCCCCC)cc5c4sc32)s1 [Compound 2]
A (Completely dissolved.) | CCCCCCCCCCCCc1cc2c(ccc3c2sc2c4ccc5sc(CCCCCCCCCCCC)cc5c4sc32)s1 [Compound 4]
A (Completely dissolved.) | CCCCCCCCC#Cc1cc2ccc3c(sc4c5ccc6cc(C#CCCCCCCCC)sc6c5sc34)c2s1 [Compound 29]
A (Completely dissolved.) | CCCCCCCCC#Cc1cc2c(ccc3c2sc2c4ccc5sc(C#CCCCCCCCC)cc5c4sc32)s1 [Compound 30]
A (Completely dissolved.) | CCCCCCCCOc1cc2ccc3c(sc4c5ccc6cc(OCCCCCCCC)sc6c5sc34)c2s1 [Compound 37]
A (Completely dissolved.) | CCCCCCCCOc1cc2c(ccc3c2sc2c4ccc5sc(OCCCCCCCC)cc5c4sc32)s1 [Compound 38]
A (Completely dissolved.) | CCCCCCCCCCCCCCc1cc2ccsc2c2sc3c(sc4c5sccc5cc(CCCCCCCCCCCCCC)c43)c12 [Compound 39]
A (Completely dissolved.) | CCCCCCCCCCCCCCc1cc2sccc2c2sc3c(sc4c5ccsc5cc(CCCCCCCCCCCCCC)c43)c12 [Compound 40]
A (Completely dissolved.) | CCCCCCCCc1cc2ccc3c(sc4c5ccc6ccsc6c5sc34)c2s1 [Compound 43]
A (Completely dissolved.) | CCCCCCCCc1cc2c(ccc3c2sc2c4ccc5sccc5c4sc32)s1 [Compound 44]

Compound | Solubility
CCCCCCCCCCCCc1cc2ccc3c(sc4c5ccc6cc(CCCCCCCCCCCC)sc6c5sc34)c2s1 [Compound 3] | A (Completely dissolved.)

same assay, conditions: organic solvent or mixture, thermodynamic from solid; 20 mg mixed with toluene (1 mL); read-out: Solubility

Solubility [mg/mL] | Compound
> 20 | CC(C)CCCC(C)CCc1cc2ccc3c(sc4c5ccc6cc(CCC(C)CCCC(C)C)sc6c5sc34)c2s1 (centres unmarked) [Compound 5]
< 20 | Cn1ccc2c3sc4c5ccc6c(ccn6C)c5sc4c3ccc21 [compound 1, reference compound]
< 20 | CCc1cc2cc3c(cc2s1)sc1c2cc4cc(CC)sc4cc2sc31 [compound 2, reference compound]
< 20 | CCCC(C)n1ccc2c3sc4c5ccc6c(ccn6C(C)CCC)c5sc4c3ccc21 (centres unmarked) [compound 3, reference compound]
< 20 | c1cc2cc3sc4c5cc6sccc6cc5sc4c3cc2s1 [compound 4, reference compound]
